In general, IC50 refers to the concentration needed to halve the response being measured.

Consider 17 molecules from US10428080B2, “TBK/IKK inhibitor compounds and uses thereof” (Merck Patent GmbH, priority 2015, dated 2019).

One assay deals with T1, TBK1 (Homo sapiens, UniProt Q9UHD2).
T1 sequence (Q9UHD2 1-729): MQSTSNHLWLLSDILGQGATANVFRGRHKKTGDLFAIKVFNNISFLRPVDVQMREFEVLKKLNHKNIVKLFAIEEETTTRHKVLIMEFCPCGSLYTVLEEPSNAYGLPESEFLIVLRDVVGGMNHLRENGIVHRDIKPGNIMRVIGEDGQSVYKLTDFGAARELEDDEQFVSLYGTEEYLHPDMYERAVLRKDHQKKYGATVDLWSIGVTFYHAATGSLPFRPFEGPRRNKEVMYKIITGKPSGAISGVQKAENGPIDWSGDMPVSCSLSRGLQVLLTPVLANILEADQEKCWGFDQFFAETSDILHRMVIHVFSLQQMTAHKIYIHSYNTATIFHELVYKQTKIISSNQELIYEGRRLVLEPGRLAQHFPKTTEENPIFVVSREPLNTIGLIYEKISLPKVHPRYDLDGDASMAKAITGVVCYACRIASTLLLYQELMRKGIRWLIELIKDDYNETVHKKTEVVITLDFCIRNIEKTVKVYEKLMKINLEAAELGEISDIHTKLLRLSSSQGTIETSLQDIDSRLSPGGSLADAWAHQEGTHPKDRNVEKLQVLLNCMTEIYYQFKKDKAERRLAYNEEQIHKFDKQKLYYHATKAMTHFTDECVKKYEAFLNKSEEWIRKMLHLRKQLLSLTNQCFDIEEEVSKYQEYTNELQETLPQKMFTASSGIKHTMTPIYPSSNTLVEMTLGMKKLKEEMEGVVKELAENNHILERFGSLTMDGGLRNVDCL
The assay can be described thus: TBK Biochemical Assay. The settings on record: read-out: TBK1 IC50. The method, boiled down:
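TBK1 enzyme and substrate incubated with compounds (10-point 1:4 dilution, top 30 uM final, 1% DMSO) for 90 min at 25° C, then stopped. Substrate/product peaks read by microfluidic mobility-shift (Caliper LabChip); 10 uM staurosporine as full-inhibition control.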

The next assay concerns the target T2, IKKε (Homo sapiens, UniProt Q14164).
T2 sequence (Q14164 1-716): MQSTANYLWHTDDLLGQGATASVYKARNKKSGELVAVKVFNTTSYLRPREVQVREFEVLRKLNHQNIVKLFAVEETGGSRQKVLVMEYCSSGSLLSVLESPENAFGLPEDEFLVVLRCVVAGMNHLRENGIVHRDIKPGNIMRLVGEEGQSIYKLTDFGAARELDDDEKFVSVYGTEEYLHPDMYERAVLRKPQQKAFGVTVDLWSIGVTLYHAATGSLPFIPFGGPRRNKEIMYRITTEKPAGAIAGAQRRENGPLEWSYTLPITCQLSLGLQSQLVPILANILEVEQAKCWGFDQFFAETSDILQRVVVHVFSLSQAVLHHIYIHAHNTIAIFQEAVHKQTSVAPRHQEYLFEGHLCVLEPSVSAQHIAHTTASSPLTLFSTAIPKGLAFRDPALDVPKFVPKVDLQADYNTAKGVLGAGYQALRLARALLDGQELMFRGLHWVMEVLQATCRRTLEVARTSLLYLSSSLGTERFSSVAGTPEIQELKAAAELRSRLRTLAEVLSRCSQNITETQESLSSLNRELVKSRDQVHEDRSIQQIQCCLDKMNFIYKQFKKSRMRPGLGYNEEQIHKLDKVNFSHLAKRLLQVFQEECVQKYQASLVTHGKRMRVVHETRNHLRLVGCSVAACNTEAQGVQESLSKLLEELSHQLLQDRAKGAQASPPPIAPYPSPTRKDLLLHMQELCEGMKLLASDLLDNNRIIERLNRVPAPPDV
The assay can be described thus: IKKe Biochemical Assay. To be noted: read-out: IKKε IC50. In a few lines: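 Recombinant IKKε and substrate were incubated with compound (10-point 1:4 series, top 30 uM final, 1% DMSO) for 90 min at 25° C, then stopped. Substrate-to-product conversion was read by LabChip microfluidic mobility shift; 10 uM staurosporine served as full-inhibition wells.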

The test system of assay [1] is phosphorylation of the IRF-3 protein in MDA-MB-468 cells. Put plainly: pIRF3 immunocytochemistry cell based assay. The settings on record: Homo sapiens; MDA-MB-468 cells, Poly(I:C) stimulation; read-out: pIRF3 IC50. The method, boiled down: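 MDA-MB-468 cells got compounds (10-point, 3-fold from 10 uM) for 1 h at 37 °C, then 10 ug/ml Poly(I:C) for 2 h. Fixed, permeabilized cells were immunostained for pIRF3 with AlexaFluor488 and counterstained with PI. % phosphorylation was read by laser scanning cytometry, and IC50 curves were fitted.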

Counter-ions that a name gives are not always drawn.

On to `COc1cc(C(=O)O)ccc1-c1cc2nccc(-c3ccc(NC4CCOCC4)c(C#N)c3)c2o1` [Compound 88], for which the IC50 on TBK1 was less than 0.1 µM; at IKKε, less than 0.1 µM; in assay [1], 0.1 to 1 µM.
On to `COc1cc(C(=O)N(C)C)ccc1-c1cc2nccc(-c3ccc(OC4CCOC4)c(C#N)c3)c2o1` (stereo not drawn) [Compound 90, 4-{7-[3-Cyano-4-(tetrahydro-furan-3-yloxy)-phenyl]-furo[3,2-b]pyridin-2-yl}-3-methoxy-N,N-dimethyl-benzamide], for which the IC50 at TBK1 is less than 0.1 µM; at IKKε, less than 0.1 µM; in assay [1] it was 0.1 to 1 µM.
`COc1cc(C(=O)N2CCC(CO)C2)ccc1-c1cc2nccc(-c3ccc(NC4CCOCC4)c(C#N)c3)c2o1` (stereo not drawn) [Compound 91, 5-{2-[4-(3-Hydroxymethyl-pyrrolidine-1-carbonyl)-2-methoxy-phenyl]-furo[3,2-b]pyridin-7-yl}-2-(tetrahydro-pyran-4-ylamino)-benzonitrile]: the values for the IC50 (at TBK1; at IKKε; in assay [1]) were less than 0.1 µM, less than 0.1 µM and 0.1 to 1 µM, respectively.
Turning to `COc1cc(C(=O)NCC2CCNCC2)ccc1-c1cc2nccc(-c3ccc(OC4CCOCC4)c(C#N)c3)c2o1` [Compound 92, 4-{7-[3-Cyano-4-(tetrahydro-pyran-4-yloxy)-phenyl]-furo[3,2-b]pyridin-2-yl}-3-methoxy-N-piperidin-4-ylmethyl-benzamide hydrochloride], the values for the IC50 (on TBK1; on IKKε; in assay [1]) were less than 0.1 µM, less than 0.1 µM and 0.1 to 1 µM, respectively.
For the molecule `COc1cc(C(=O)N(C)C)ccc1-c1cc2nccc(-c3ccc(OCC4CCOC4)c(C#N)c3)c2o1` (stereo not drawn) [Compound 93, 4-{7-[3-Cyano-4-(tetrahydro-furan-3-ylmethoxy)-phenyl]-furo[3,2-b]pyridin-2-yl}-3-methoxy-N,N-dimethyl-benzamide], the IC50 at TBK1 was less than 0.1 µM; at IKKε, less than 0.1 µM; in assay [1], 0.1 to 1 µM.
For `COc1cc(C(=O)NC2CNCC(F)(F)C2)ccc1-c1cc2nccc(-c3ccc(OC4CCOCC4)c(C#N)c3)c2o1` (stereo not drawn) [Compound 98, 4-{7-[3-Cyano-4-(tetrahydro-pyran-4-yloxy)-phenyl]-furo[3,2-b]pyridin-2-yl}-N-(5,5-difluoro-piperidin-3-yl)-3-methoxy-benzamide hydrochloride], the concentration for half-maximal inhibition (IC50) at TBK1 was less than 0.1 µM; on IKKε it was less than 0.1 µM; in assay [1] it was 0.1 to 1 µM.
Regarding `COc1cc(C(=O)N2CC(O)C2)ccc1-c1cc2nccc(-c3ccc(NC4CCOCC4)c(C#N)c3)c2o1` [Compound 101, 5-{2-[4-(3-Hydroxy-azetidine-1-carbonyl)-2-methoxy-phenyl]-furo[3,2-b]pyridin-7-yl}-2-(tetrahydro-pyran-4-ylamino)-benzonitrile], the results for the IC50 (at TBK1; on IKKε; in assay [1]) were less than 0.1 µM, less than 0.1 µM and 0.1 to 1 µM, respectively.
Regarding `COc1cc(C(=O)N2CCC(O)C2)ccc1-c1cc2nccc(-c3ccc(NC4CCOCC4)c(C#N)c3)c2o1` (stereo not drawn) [Compound 104, 5-{2-[4-(3-Hydroxy-pyrrolidine-1-carbonyl)-2-methoxy-phenyl]-furo[3,2-b]pyridin-7-yl}-2-(tetrahydro-pyran-4-ylamino)-benzonitrile], the IC50 at TBK1 is less than 0.1 µM; at IKKε it was less than 0.1 µM; in assay [1] it was 0.1 to 1 µM.
Regarding `COc1cc(C(=O)N(C)C)ccc1-c1cc2nccc(-c3ccc(OC4CCCOC4)c(C#N)c3)c2o1` (stereo not drawn) [Compound 105, 4-{7-[3-Cyano-4-(tetrahydro-pyran-3-yloxy)-phenyl]-furo[3,2-b]pyridin-2-yl}-3-methoxy-N,N-dimethyl-benzamide], the concentration for half-maximal inhibition (IC50) is less than 0.1 µM at TBK1, less than 0.1 µM at IKKε and 0.1 to 1 µM in assay [1].
On to `CN(C)C(=O)c1ccc(-c2cc3nccc(-c4ccc(N5CC[C@H](F)C5)c(C#N)c4)c3o2)cc1` [Compound 106, 4-{7-[3-Cyano-4-((S)-3-fluoro-pyrrolidin-1-yl)-phenyl]-furo[3,2-b]pyridin-2-yl}-N,N-dimethyl-benzamide], for which the results for the IC50 (on TBK1; on IKKε; in assay [1]) were less than 0.1 µM, less than 0.1 µM and 0.1 to 1 µM, respectively.
Regarding `COc1cc(C(=O)N(C)C)ccc1-c1cc2nccc(-c3ccc(OC4CCNC4)c(C#N)c3)c2o1` (stereo not drawn) [Compound 108, 4-{7-[3-Cyano-4-(pyrrolidin-3-yloxy)-phenyl]-furo[3,2-b]pyridin-2-yl}-3-methoxy-N,N-dimethyl-benzamide], the 50% inhibitory concentration (IC50) (on TBK1; at IKKε; in assay [1]) was less than 0.1 µM each time.
Consider `COc1cc(C(=O)N(C)C)ccc1-c1cc2nccc(-c3cnc(OC4CCOCC4)c(C#N)c3)c2o1` [Compound 109, 4-{7-[5-Cyano-6-(tetrahydro-pyran-4-yloxy)-pyridin-3-yl]-furo[3,2-b]pyridin-2-yl}-3-methoxy-N,N-dimethyl-benzamide], for which the IC50 is less than 0.1 µM at TBK1, less than 0.1 µM at IKKε and 0.1 to 1 µM in assay [1].
Regarding `COc1cc(C(=O)NN)ccc1-c1cc2nccc(-c3ccc(OC4CCOCC4)c(C#N)c3)c2o1` [Compound 110, 4-{7-[3-Cyano-4-(tetrahydro-pyran-4-yloxy)-phenyl]-furo[3,2-b]pyridin-2-yl}-3-methoxy-benzoic acid hydrazide], the values for the 50% inhibitory concentration (IC50) (at TBK1; on IKKε; in assay [1]) were less than 0.1 µM, less than 0.1 µM and 0.1 to 1 µM, respectively.
As for `COc1cc(C(=O)NCC(O)CO)ccc1-c1cc2nccc(-c3ccc(NC4CCOCC4)c(C#N)c3)c2o1` (stereo not drawn) [Compound 111, 4-{7-[3-Cyano-4-(tetrahydro-pyran-4-ylamino)-phenyl]-furo[3,2-b]pyridin-2-yl}-N-(2,3-dihydroxy-propyl)-3-methoxy-benzamide], the IC50 was less than 0.1 µM on TBK1, less than 0.1 µM on IKKε and 0.1 to 1 µM in assay [1].
For `COc1cc(C(=O)N(C)C)ccc1-c1cc2nccc(-c3ccc(OC4CCN(C(C)=O)CC4)c(C#N)c3)c2o1` [Compound 112, 4-{7-[4-(1-Acetyl-piperidin-4-yloxy)-3-cyano-phenyl]-furo[3,2-b]pyridin-2-yl}-3-methoxy-N,N-dimethyl-benzamide], the IC50 on TBK1 was less than 0.1 µM; on IKKε, less than 0.1 µM; in assay [1], 0.1 to 1 µM.
Regarding `CC(C)N1CCN(C(=O)c2ccc(-c3cc4nccc(-c5ccc(OC6CCOCC6)c(C#N)c5)c4o3)cc2)CC1` [Compound 116, 5-{2-[4-(4-Isopropyl-piperazine-1-carbonyl)-phenyl]-furo[3,2-b]pyridin-7-yl}-2-(tetrahydro-pyran-4-yloxy)-benzonitrile], the IC50 on TBK1 was less than 0.1 µM; on IKKε, less than 0.1 µM; in assay [1], 0.1 to 1 µM.
As for `COc1cc(C(=O)NC2CCOC2)ccc1-c1cc2nccc(-c3ccc(NC4CCOCC4)c(C#N)c3)c2o1` (stereo not drawn) [Compound 117, 4-{7-[3-Cyano-4-(tetrahydro-pyran-4-ylamino)-phenyl]-furo[3,2-b]pyridin-2-yl}-3-methoxy-N-(tetrahydro-furan-3-yl)-benzamide], the results for the IC50 (on TBK1; at IKKε; in assay [1]) were less than 0.1 µM, less than 0.1 µM and 0.1 to 1 µM, respectively.
